Data as given in patent publication US7803801B2, “Aminopyridine compounds having Syk inhibitory activity” (Japan Tobacco, Inc., priority 2005, dated 2010).
Structures can show the parent of a compound that is named as a salt. Where two headings read alike, the source gives them in different places.

How the values were obtained:
[1] = system: cultured human mast cells; assay: Degranulation inhibition test using cultured human mast cells (IgE cross-linking, β-Hexosaminidase release); assay type: cell-based; conditions: Mast cell, cultured human mast cells, read-out: human degranulation ave. IC50
Summary of the method: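 Degranulation was triggered by anti-hIgE (10 μg/mL final, 30 min, 37 °C) after a 10-min compound pretreatment (DMSO 0.1%) of cord-blood CD34+-derived mast cells primed 5 days with IL-4 and IgE. β-Hexosaminidase in supernatant was measured with p-nitrophenyl-GlcNAc substrate (A405), expressed against water-lysed total; IC50 (M).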

[2] = biological target: GST-Syk Full Protein (human) (Homo sapiens, UniProt P43405); assay: Syk kinase inhibition test (HTRF method); assay type: biochemical
Summary of the method: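 HTRF read-out: after EDTA termination and 1 h with XL665-streptavidin and Eu-anti-phosphotyrosine, the 665/620 nm ratio was measured. The reaction ran 30 min at 20–25 °C with final 6.4 nM human GST-Syk, 250 nM biotinylated peptide, 100 μM ATP, pH 7.0 HEPES buffer, 2% DMSO.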

[3] = Tables 2-x, thiophene compounds B
[4] = Tables 2-x, thiophene compounds B, read-out: sykHTRK ave IC50
[5] = Tables 1-x, compounds A, read-out: sykHTRF ave IC50
[6] = anti-hIgE stimulation, β-Hexosaminidase index, average
[7] = HTRF, 100 μM ATP, 30 min room temperature, average, read-out: sykHTRF ave IC50

Structure (SMILES) | IC50 [1, 6] [nM] | IC50 [2, 7] [nM] | also measured
Cc1ccnc(Nc2cccc(-c3ccc(C(N)=O)s3)n2)c1 [Compound B-23, 5-[6-(4-methylpyridin-2-ylamino)pyridin-2-yl]thiophene-2-carboxamide] | – | – | IC50 [1, 3]: > 1000 nM; IC50 [2, 4]: < 100 nM
Cc1ccnc(Nc2cccc(-c3cnc(N4CCC(C(=O)N(C)C)CC4)s3)n2)c1 [Compound A-434] | – | – | IC50 ([1]; Tables 1-x, compounds A): > 1000 nM; IC50 [2, 5]: 100 to 1000 nM
Cc1ccnc(Nc2cccc(-c3cnc(N4CCC(CC(=O)NCCO)CC4)s3)n2)c1 [Compound A-506, N-(2-hydroxyethyl)-2-(1-{5-[6-(4-methylpyridin-2-ylamino)pyridin-2-yl]thiazol-2-yl}piperidin-4-yl)acetamide] | – | – | IC50 ([1]; Tables 1-x, compounds A): 100 to 1000 nM; IC50 [2, 5]: < 100 nM
Cc1ccnc(Nc2cccc(-c3cnc([C@H]4CC[C@H](C(=O)N(C)C)CC4)s3)n2)c1 [Compound A-264] | 100 to 1000 | 100 to 1000 | –
O=C1CC[C@@H](c2ncc(-c3cccc(Nc4cc(Cl)ccn4)n3)s2)N1 [Compound A-323, (S)-5-{5-[6-(4-chloropyridin-2-ylamino)pyridin-2-yl]thiazol-2-yl}pyrrolidin-2-one] | < 100 | < 100 | –
Cc1ccnc(Nc2cccc(-c3cnc(CNC(=O)c4c[nH]cn4)s3)n2)c1 [Compound A-396] | – | – | IC50 ([1]; Tables 1-x, compounds A): > 1000 nM; IC50 [2, 5]: 100 to 1000 nM
CC(=O)OC(C)c1ccc(-c2cccc(Nc3cc(C)ccn3)n2)s1 (stereo not shown) [Compound B-4, 1-{5-[6-(4-methylpyridin-2-ylamino)pyridin-2-yl]thiophen-2-yl}ethyl acetate acetic acid ester] | – | – | IC50 [1, 3]: > 1000 nM; IC50 [2, 4]: 100 to 1000 nM
Cc1ccnc(Nc2cccc(-c3cnc(CC(=O)OC(C)(C)C)s3)n2)c1 [Compound A-222] | > 1000 | 100 to 1000 | –
Cc1ccnc(Nc2cccc(-c3cnc(N4CCCC(COCC(N)=O)C4)s3)n2)c1 (stereo not shown) [Compound A-499, 2-(1-{5-[6-(4-methylpyridin-2-ylamino)pyridin-2-yl]thiazol-2-yl}piperidin-3-ylmethoxy)acetamide] | – | – | IC50 ([1]; Tables 1-x, compounds A): 100 to 1000 nM; IC50 [2, 5]: < 100 nM
Cc1ccnc(Nc2cccc(-c3ccc(NC(=O)OC(C)(C)C)s3)n2)c1 [Compound B-34] | – | – | IC50 [1, 3]: > 1000 nM; IC50 [2, 4]: 100 to 1000 nM
Cc1ccnc(Nc2cccc(-c3cnc([C@H](C)NS(C)(=O)=O)s3)n2)c1 [Compound A-58] | 100 to 1000 | 100 to 1000 | –
CC(=O)c1ccnc(Nc2cccc(-c3ccc(C(C)=O)s3)n2)c1 [Compound B-83] | – | – | IC50 [1, 3]: 100 to 1000 nM; IC50 [2, 4]: 100 to 1000 nM
Cc1ccnc(Nc2cccc(-c3cnc([C@H](C)NC(=O)N(C)C)s3)n2)c1 [Compound A-56] | 100 to 1000 | 100 to 1000 | –
Cc1ccnc(Nc2cccc(-c3cnc(N(C)C4CCN(C(=O)c5ccc(O)cc5)CC4)s3)n2)c1 [Compound A-513, (4-hydroxyphenyl)-[4-(N-methyl-N-{5-[6-(4-methylpyridin-2-ylamino)pyridin-2-yl]thiazol-2-yl}amino)piperidin-1-yl]methanone] | – | – | IC50 ([1]; Tables 1-x, compounds A): 100 to 1000 nM; IC50 [2, 5]: < 100 nM
CC(=O)Oc1ccc(CC(OC(C)=O)c2ncc(-c3cccc(Nc4cc(C)ccn4)n3)s2)cc1 (stereo not shown) [Compound A-360] | > 1000 | > 1000 | –
Cc1ccnc(Nc2cccc(-c3ccc(C(=O)N4CCOCC4)s3)n2)c1 [Compound B-81] | – | – | IC50 [1, 3]: 100 to 1000 nM; IC50 [2, 4]: 100 to 1000 nM
Cc1ccnc(Nc2cccc(-c3cnc(COCC(=O)N4CCNC(=O)C4)s3)n2)c1 [Compound A-370, 4-(2-{5-[6-(4-methylpyridin-2-ylamino)pyridin-2-yl]thiazol-2-ylmethoxy}acetyl)piperazin-2-one] | 100 to 1000 | < 100 | –
Cc1ccnc(Nc2cccc(-c3ccc(C(=O)NC(C)(C)C(=O)O)s3)n2)c1 [Compound B-100] | – | – | IC50 [1, 3]: > 1000 nM; IC50 [2, 4]: 100 to 1000 nM
Cc1ccnc(Nc2cccc(-c3cnc(CCc4cccc(C(=O)O)c4)s3)n2)c1 [Compound A-276] | > 1000 | 100 to 1000 | –
CC1(c2ccnc(Nc3cccc(-c4cnc(N5CCC(CC(=O)O)CC5)s4)n3)c2)OCCO1 [Compound A-572, [1-(5-{6-[4-(2-methyl-[1,3]dioxolan-2-yl)pyridin-2-ylamino]pyridin-2-yl}thiazol-2-yl)piperidin-4-yl]acetic acid dihydrochloride] | – | – | IC50 ([1]; Tables 1-x, compounds A): 100 to 1000 nM; IC50 [2, 5]: < 100 nM
Cc1ccnc(Nc2cccc(-c3cnc([C@@H](N)Cc4ccc(NC(=O)OCc5ccccc5)cc4)s3)n2)c1 [Compound A-177] | > 1000 | 100 to 1000 | –

Structure (SMILES) | IC50 [1, 6] [nM] | IC50 [2, 7] [nM] | also measured
Cc1ccnc(Nc2cccc(-c3cnc([C@H]4CC[C@H](C(=O)NN5CCC(O)CC5)CC4)s3)n2)c1 [Compound A-298, N-(4-hydroxypiperidin-1-yl)-trans-4-{5-[6-(4-methylpyridin-2-ylamino)pyridin-2-yl]thiazol-2-yl}cyclohexanecarboxamide] | 100 to 1000 | < 100 | –
Cc1ccnc(Nc2cccc(-c3cnc(CCO)s3)n2)c1 [Compound A-205, 2-{5-[6-(4-methylpyridin-2-ylamino)pyridin-2-yl]thiazol-2-yl}ethanol] | 100 to 1000 | < 100 | –
COC(=O)N(C)Cc1ncc(-c2cccc(Nc3cc(C)ccn3)n2)s1 [Compound A-356] | 100 to 1000 | 100 to 1000 | –
Cc1ccnc(Nc2cccc(-c3cnc(N4CCN(C)C(=O)C4)s3)n2)c1 [Compound A-1, 1-methyl-4-{5-[6-(4-methylpyridin-2-ylamino)pyridin-2-yl]thiazol-2-yl}piperazin-2-one] | 100 to 1000 | 100 to 1000 | –
COC(CN(C)c1ncc(-c2cccc(Nc3cc(C)ccn3)n2)s1)OC [Compound A-457, N-(2,2-dimethoxyethyl)-N-methyl-N-{5-[6-(4-methylpyridin-2-ylamino)pyridin-2-yl]thiazol-2-yl}amine] | – | – | IC50 ([1]; Tables 1-x, compounds A): 100 to 1000 nM; IC50 [2, 5]: < 100 nM
CCOC(=O)C1CCN(Cc2ncc(-c3cccc(Nc4cc(C)ccn4)n3)s2)CC1 [Compound A-167] | > 1000 | 100 to 1000 | –
O=C1CC[C@@H](c2ncc(-c3cccc(Nc4cc(CCO)ccn4)n3)s2)N1 [Compound A-330, (S)-5-(5-{6-[4-(2-hydroxyethyl)pyridin-2-ylamino]pyridin-2-yl}thiazol-2-yl)pyrrolidin-2-one] | 100 to 1000 | < 100 | –
C/C(=N\OCCO)c1ncc(-c2cccc(Nc3cc(C)ccn3)n2)s1 [Compound A-35, 1-{5-[6-(4-methylpyridin-2-ylamino)pyridin-2-yl]thiazol-2-yl}ethanone 0-(2-hydroxyethyl)oxime] | 100 to 1000 | < 100 | –
Cc1ccnc(Nc2cccc(-c3cnc(N(C)Cc4ccc(C(=O)O)s4)s3)n2)c1 [Compound A-603, 5-[(N-methyl-N-{5-[6-(4-methylpyridin-2-ylamino)pyridin-2-yl]thiazol-2-yl}amino)methyl]thiophene-2-carboxylic acid] | – | – | IC50 ([1]; Tables 1-x, compounds A): > 1000 nM; IC50 [2, 5]: < 100 nM
Cc1ccnc(Nc2cccc(-c3cnc(CCC4CCN(C(=O)C5CCNCC5)CC4)s3)n2)c1 [Compound A-295, [4-(2-{5-[6-(4-methylpyridin-2-ylamino)pyridin-2-yl]thiazol-2-yl}ethyl)piperidin-1-yl]-(piperidin-4-yl)metanone] | > 1000 | < 100 | –
CNC(=O)Cc1ccnc(Nc2cccc(-c3cnc([C@@H]4CCC(=O)N4)s3)n2)c1 [Compound A-342] | > 1000 | > 1000 | –
Cc1ccnc(Nc2cccc(-c3cnc([C@@H]4COC(C)(C)O4)s3)n2)c1 [Compound A-365] | 100 to 1000 | 100 to 1000 | –
Cc1ccnc(Nc2cccc(-c3cnc([C@@H](N)Cc4ccc(OCc5ccccc5)cc4)s3)n2)c1 [Compound A-86] | > 1000 | 100 to 1000 | –
CNC(=O)CN1CCN(c2ncc(-c3cccc(Nc4cc(C)ccn4)n3)s2)CC1=O [Compound A-466, N-methyl-2-(4-{5-[6-(4-methylpyridin-2-ylamino)pyridin-2-yl]thiazol-2-yl}-2-oxopiperazin-1-yl)acetamide] | – | – | IC50 ([1]; Tables 1-x, compounds A): > 1000 nM; IC50 [2, 5]: < 100 nM
Cc1ccnc(Nc2cccc(-c3ccc(-c4cc(C)no4)s3)n2)c1 [Compound B-66] | – | – | IC50 [1, 3]: > 1000 nM; IC50 [2, 4]: 100 to 1000 nM
CNC(=O)N1CCC(N(C)c2ncc(-c3cccc(Nc4cc(C)ccn4)n3)s2)CC1 [Compound A-460, N-methyl-4-(N′-methyl-N′-{5-[6-(4-methylpyridin-2-ylamino)pyridin-2-yl]thiazol-2-yl}amino)piperidine-1-carboxamide] | – | – | IC50 ([1]; Tables 1-x, compounds A): 100 to 1000 nM; IC50 [2, 5]: < 100 nM
Cc1ccnc(Nc2cccc(-c3cnc([C@@H]4COC(C)(C)N4C(=O)OC(C)(C)C)s3)n2)c1 [Compound A-12, (S)-2,2-dimethyl-4-{5-[6-(4-methylpyridin-2-ylamino)pyridin-2-yl]thiazol-2-yl}oxazolidine-3-carboxylic acid tert-butyl ester] | > 1000 | > 1000 | –
Cc1ccnc(Nc2cccc(-c3cnc(COCC(=O)N(C)C)s3)n2)c1 [Compound A-368] | 100 to 1000 | 100 to 1000 | –
Cc1ccnc(Nc2cccc(-c3cnc(C4CCN(C(=O)N(C)C)CC4)s3)n2)c1 [Compound A-371] | 100 to 1000 | 100 to 1000 | –
Cc1ccnc(Nc2cccc(-c3cnc(N4CCC(C(=O)N5CCC(O)CC5)CC4)s3)n2)c1 [Compound A-420] | – | – | IC50 ([1]; Tables 1-x, compounds A): > 1000 nM; IC50 [2, 5]: 100 to 1000 nM
